# Source: patent US7163946B2 (Ligand Pharmaceuticals Incorporated, priority 2002, dated 2007)
# Key:
# Assay type in all cases: cell-based
# Conditions in all cases: receptor-selectivity potency ratio, cotransfection assays
# [1] = target: T1, human estrogen receptor (hER) (Homo sapiens, UniProt P03372); experiment: hER cotransfection assay (potency ratio to hPR)
# T1 sequence (P03372 1-595): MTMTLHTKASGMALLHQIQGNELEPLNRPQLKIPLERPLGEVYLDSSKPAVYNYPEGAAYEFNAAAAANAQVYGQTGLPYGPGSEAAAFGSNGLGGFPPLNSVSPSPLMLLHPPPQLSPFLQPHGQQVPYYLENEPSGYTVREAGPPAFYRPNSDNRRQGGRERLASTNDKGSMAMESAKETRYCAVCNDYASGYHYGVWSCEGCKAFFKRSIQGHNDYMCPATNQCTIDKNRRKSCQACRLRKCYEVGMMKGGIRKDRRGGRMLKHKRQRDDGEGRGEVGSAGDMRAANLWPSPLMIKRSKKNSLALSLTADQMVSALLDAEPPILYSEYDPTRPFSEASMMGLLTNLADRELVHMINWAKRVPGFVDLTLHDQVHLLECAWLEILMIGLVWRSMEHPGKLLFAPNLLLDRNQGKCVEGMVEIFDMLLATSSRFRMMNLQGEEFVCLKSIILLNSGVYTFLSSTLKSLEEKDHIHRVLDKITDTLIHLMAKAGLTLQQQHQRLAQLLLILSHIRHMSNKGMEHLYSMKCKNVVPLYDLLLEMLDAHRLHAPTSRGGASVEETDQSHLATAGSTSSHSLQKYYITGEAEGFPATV
# [2] = target: T2, human mineralocorticoid receptor (hMR) (Homo sapiens, UniProt P08235); experiment: hMR cotransfection assay (potency ratio to hPR)
# T2 sequence (P08235 1-984): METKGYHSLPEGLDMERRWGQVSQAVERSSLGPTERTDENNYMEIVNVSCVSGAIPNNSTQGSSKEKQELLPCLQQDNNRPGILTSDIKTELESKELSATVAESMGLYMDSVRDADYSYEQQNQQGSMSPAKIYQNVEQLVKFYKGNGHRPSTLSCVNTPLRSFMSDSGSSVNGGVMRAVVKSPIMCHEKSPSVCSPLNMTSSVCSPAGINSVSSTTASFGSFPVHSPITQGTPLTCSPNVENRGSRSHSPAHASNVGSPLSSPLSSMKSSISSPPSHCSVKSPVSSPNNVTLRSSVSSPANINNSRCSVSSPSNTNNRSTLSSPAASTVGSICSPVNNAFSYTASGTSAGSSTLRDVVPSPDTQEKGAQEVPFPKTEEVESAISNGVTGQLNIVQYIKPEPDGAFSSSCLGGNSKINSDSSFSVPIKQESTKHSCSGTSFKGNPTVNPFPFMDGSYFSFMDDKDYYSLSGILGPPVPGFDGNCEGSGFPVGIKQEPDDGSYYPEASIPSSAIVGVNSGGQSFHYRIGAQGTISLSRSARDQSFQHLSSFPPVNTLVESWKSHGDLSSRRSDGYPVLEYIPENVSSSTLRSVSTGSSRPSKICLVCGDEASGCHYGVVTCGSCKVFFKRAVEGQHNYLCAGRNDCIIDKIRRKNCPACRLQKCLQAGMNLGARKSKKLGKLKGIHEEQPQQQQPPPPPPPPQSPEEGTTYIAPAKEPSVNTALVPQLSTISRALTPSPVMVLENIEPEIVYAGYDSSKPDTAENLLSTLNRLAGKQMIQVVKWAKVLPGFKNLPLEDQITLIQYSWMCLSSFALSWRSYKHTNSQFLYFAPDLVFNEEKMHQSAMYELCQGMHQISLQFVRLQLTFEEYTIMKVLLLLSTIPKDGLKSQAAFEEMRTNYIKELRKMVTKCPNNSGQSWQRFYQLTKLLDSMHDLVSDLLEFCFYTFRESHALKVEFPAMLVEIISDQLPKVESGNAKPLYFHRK
# [3] = target: T3, human androgen receptor (hAR) (Homo sapiens, UniProt P10275); experiment: hAR cotransfection assay (potency ratio to hPR)
# T3 sequence (P10275 1-920): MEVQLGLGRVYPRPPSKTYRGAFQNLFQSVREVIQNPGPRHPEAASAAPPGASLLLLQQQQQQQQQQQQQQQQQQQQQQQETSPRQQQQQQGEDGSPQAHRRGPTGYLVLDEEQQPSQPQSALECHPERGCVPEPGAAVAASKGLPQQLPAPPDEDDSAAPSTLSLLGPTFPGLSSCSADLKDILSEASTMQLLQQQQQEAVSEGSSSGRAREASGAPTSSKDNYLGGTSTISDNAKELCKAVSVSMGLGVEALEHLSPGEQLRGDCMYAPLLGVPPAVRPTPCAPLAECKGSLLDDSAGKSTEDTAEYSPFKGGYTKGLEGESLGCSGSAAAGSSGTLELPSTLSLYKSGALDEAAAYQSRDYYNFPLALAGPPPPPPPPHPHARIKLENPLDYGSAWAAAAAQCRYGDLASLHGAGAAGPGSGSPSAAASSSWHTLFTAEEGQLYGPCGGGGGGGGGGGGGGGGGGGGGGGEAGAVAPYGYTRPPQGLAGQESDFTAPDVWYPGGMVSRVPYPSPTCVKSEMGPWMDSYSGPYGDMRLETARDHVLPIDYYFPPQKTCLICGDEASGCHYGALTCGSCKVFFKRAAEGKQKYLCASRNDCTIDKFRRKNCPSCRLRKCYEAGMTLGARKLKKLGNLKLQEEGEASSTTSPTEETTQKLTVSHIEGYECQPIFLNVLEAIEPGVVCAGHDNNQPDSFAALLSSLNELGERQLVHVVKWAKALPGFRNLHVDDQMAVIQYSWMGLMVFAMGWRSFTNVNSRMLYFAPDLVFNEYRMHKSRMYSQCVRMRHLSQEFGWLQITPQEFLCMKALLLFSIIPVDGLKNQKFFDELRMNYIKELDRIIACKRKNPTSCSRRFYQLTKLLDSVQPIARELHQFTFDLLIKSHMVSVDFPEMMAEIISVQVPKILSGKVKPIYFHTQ
hER EC50 or IC50/hPR EC50 [1],hMR EC50 or IC50/hPR EC50 [2],hAR EC50 or IC50/hPR EC50 [3],SMILES
>1000,>1000,37,"CC1=CC(C)(C)Nc2ccc3c(c21)C(c1ccccc1)Oc1c(F)cc(F)cc1-3 (racemic) [Compound 33, (±)-7,9-difluoro-5-phenyl-1,2-dihydro-2,2,4-trimethyl-5H-chromeno[3,4-f]quinoline]"
>1000,>1000,100,"CC#CC1Oc2c(F)cc(F)cc2-c2ccc3c(c21)C(C)=CC(C)(C)N3 (racemic) [Compound 74, (±)-7,9-difluoro-5-(1-propynyl)-1,2-dihydro-2,2,4-trimethyl-5H-chromeno[3,4-f]quinoline]"
>1000,>1000,517,"CC1=CC(C)(C)Nc2ccc3c(c21)/C(=C/c1cccs1)Oc1c(F)cc(F)cc1-3 [Compound 31, 7,9-difluoro-5(Z)-(2-thienylmethylidene)-1,2-dihydro-2,2,4-trimethyl-5H-chromeno[3,4-f]quinoline]"
>1000,>1000,>1000,"CC1=CC(C)(C)Nc2ccc3c(c21)/C(=C/c1cc(F)ccc1C)Oc1c(F)cc(F)cc1-3 [Compound 19, 7,9-difluoro-5(Z)-(2-methyl-5-fluorobenzylidene)-1,2-dihydro-2,2,4-trimethyl-5H-chromeno[3,4-f]quinoline]"
>1000,>1000,6,"CC1=CC(C)(C)Nc2ccc3c(c21)/C(=C/Br)Oc1c(F)cc(F)cc1-3 [Compound 29, 7,9-difluoro-5(Z)-bromomethylidene-1,2-dihydro-2,2,4-trimethyl-5H-chromeno[3,4-f]quinoline]"
>1000,>1000,377,"CC1=CC(C)(C)Nc2ccc3c(c21)/C(=C/c1ccsc1)Oc1c(F)cc(F)cc1-3 [Compound 30, 7,9-difluoro-5(Z)-(3-thienylmethylidene)-1,2-dihydro-2,2,4-trimethyl-5H-chromeno[3,4-f]quinoline]"
>1000,>1000,2,"CC1=CC(C)(C)Nc2ccc3c(c21)/C(=C/c1cccc(F)c1)Oc1c(F)cc(F)cc1-3 [Compound 15, 7,9-difluoro-5(Z)-(3-fluorobenzylidene)-1,2-dihydro-2,2,4-trimethyl-5H-chromeno[3,4-f]quinoline]"
>1000,>1000,170,"COc1ccccc1/C=C1\Oc2c(F)cc(F)cc2-c2ccc3c(c21)C(C)=CC(C)(C)N3 [Compound 18, 7,9-difluoro-5(Z)-(2-methoxybenzylidene)-1,2-dihydro-2,2,4-trimethyl-5H-chromeno[3,4-f]quinoline]"
>1000,>1000,320,"CC1=CC(C)(C)Nc2ccc3c(c21)/C(=C/c1ccccc1)Oc1c(F)cc(F)cc1-3 [Compound 10, 7,9-difluoro-5(Z)-benzylidene-1,2-dihydro-2,2,4-trimethyl-5H-chromeno[3,4-f]quinoline]"

# The next lines start with the compound.
SMILES,hER EC50 or IC50/hPR EC50 [1],hMR EC50 or IC50/hPR EC50 [2],hAR EC50 or IC50/hPR EC50 [3]
"COc1ccc(F)cc1/C=C1\Oc2c(F)cc(F)cc2-c2ccc3c(c21)C(C)=CC(C)(C)N3 [Compound 26, 7,9-difluoro-5(Z)-(2-methoxy-5-fluorobenzylidene)-1,2-dihydro-2,2,4-trimethyl-5H-chromeno[3,4-f]quinoline]",>1000,>1000,742
"CC1=CC(C)(C)Nc2ccc3c(c21)C(c1cccc(Cl)c1)Oc1c(F)cc(F)cc1-3 (racemic) [Compound 41, (±)-7,9-difluoro-5-(3-chlorophenyl)-1,2-dihydro-2,2,4-trimethyl-5H-chromeno[3,4-f]quinoline]",>1000,905,252
"CC1=CC(C)(C)Nc2ccc3c(c21)/C(=C/c1ccncc1C)Oc1c(F)cc(F)cc1-3 [Compound 20, 7,9-difluoro-5(Z)-(3-methyl-4-picolylidene)-1,2-dihydro-2,2,4-trimethyl-5H-chromeno[3,4-f]quinoline]",>1000,>1000,8
"CC1=CC(C)(C)Nc2ccc3c(c21)/C(=C/c1ccncc1)Oc1c(F)cc(F)cc1-3 [Compound 14, 7,9-difluoro-5(Z)-(4-picolylidene)-1,2-dihydro-2,2,4-trimethyl-5H-chromeno[3,4-f]quinoline]",>1000,>1000,54
"CC1=CC(C)(C)Nc2ccc3c(c21)C(c1cccc(C)c1)Oc1c(F)cc(F)cc1-3 (racemic) [Compound 34, (±)-7,9-difluoro-5-(3-methylphenyl)-1,2-dihydro-2,2,4-trimethyl-5H-chromeno[3,4-f]quinoline]",>1000,>1000,8.5
"CC1=CC(C)(C)Nc2ccc3c(c21)C(c1ccc(Cl)c(C)c1)Oc1c(F)cc(F)cc1-3 (racemic) [Compound 37, (±)-7,9-difluoro-5-(4-chloro-3-methylphenyl)-1,2-dihydro-2,2,4-trimethyl-5H-chromeno[3,4-f]quinoline]",>1000,>1000,558
"CC1=CC(C)(C)Nc2ccc3c(c21)/C(=C/c1cc(F)ccc1F)Oc1c(F)cc(F)cc1-3 [Compound 17, 7,9-difluoro-5(Z)-(2,5-difluorobenzylidene)-1,2-dihydro-2,2,4-trimethyl-5H-chromeno[3,4-f]quinoline]",>1000,>1000,622
"CC1=CC(C)(C)Nc2ccc3c(c21)C(c1cc2ccccc2s1)Oc1c(F)cc(F)cc1-3 (racemic) [Compound 63, (±)-7,9-difluoro-5-(benzo[b]thien-2-yl)-1,2-dihydro-2,2,4-trimethyl-5H-chromeno[3,4-f]quinoline]",685,>1000,136
